Source: patent US9381191B2, “Imidazopyridine derivatives useful in treating diabetes” (METABRAIN RESEARCH, priority 2012, dated 2016)

Legend:
isolated rat hepatocytes = test: Hepatic production of glucose, 3 h incubation; assay type: cell-based, Wistar rat; details: for activity at 50 µM / activity at 100 µM: Hepatocyte, rat hepatocytes; for activity at 50 µM: read-out: HGP % of ctrl @ 50 μM; for activity at 100 µM: read-out: HGP % of ctrl @ 100 μM
Procedure: The hepatocytes are isolated from Wistar rat liver having fasted for 24 h after perfusion of collagenase in the portal vein. 1) The freshly isolated hepatocytes are sown in 6-well plates coated with collagen and containing an adhesion medium (Williams Medium). After adhesion, the medium is replaced with RPMI 1640 medium without any glucose, containing hydrocortisone (7·10^−5M) for a duration from 16 to 18 h. The next day, the glucose hepatic production test is conducted in a Krebs medium for 3 h. The basal conditions are cells incubated with only Krebs, the stimulated conditions are the cells placed in Krebs+lactate+pyruvate, the produced conditions are the cells exposed to chemical compounds in a Krebs/lactate/pyruvate medium. In the case when the compounds are dissolved in DMSO, all the conditions of the tests are met in the presence of a final concentration of 0.1% DMSO. The positive control of the test is the mercaptopicolinate known for its inhibitory action on hepatic production of glucose via the phosphoenolpyruvate carboxykinase. For short term treatments, the compounds are incubated for 3 h. For long term treatments, the compounds are incubated for 20 h at the moment when the hepatocytes are cultivated in RPMI and then added during the hepatic production test for 3 h. At the end of the 3 hours of incubation, the supernatant is recovered for measurement of glucose with a colorimetric method using glucose oxidase. The cells are lysed with a 0.1% NaOH aqueous solution in order to measure the amount of protein with the Lowry method. The results are expressed in mmol of glucose per mg of protein.

INS-1 cells = test: Stimulation test of insulin secretion by INS-1 cells; assay type: cell-based; details: Rattus norvegicus, INS1, 1 h, insulin secretion by INS-1 cells in response to glucose; for insulin secretion, % of control at 10 µM: read-out: HGP % of ctrl @ 10 μM; for insulin secretion, % of control at 50 µM: read-out: HGP % of ctrl @ 50 μM
Procedure: The different compounds were tested on an INS-1 beta-pancreatic line in order to evaluate their capability of potentializing the insulin secretion in response to glucose. Very briefly, the cells are cultivated in a culture medium, RPMI 1640 with 10 mM glucose containing 1 mM of sodium pyruvate, 50 μM of 2-mercaptoethanol, 2 mM of glutamine, 10 mM of HEPES, 100 IU/ml of penicillin, 100 μg/ml of streptomycin and 10% of inactivated fetal calf serum, as described by Asfari et al.. For the insulin secretion test, the INS-1 cells are sown and cultivated in 96-well plates. After 3 days of cultivation at 37° C. in a humid atmosphere (95% air/5% CO2), the medium is removed and the cells are incubated for 16 h in a medium containing 5 mM of glucose and 1% of inactivated fetal calf serum. On the day of the test, the cells are washed with a Krebs buffer (pH 7.4) containing 0.1% of bovine albumin and then pre-incubated for 30 min at 37° C. in this same buffer containing 2.8 mM of glucose. Finally, the cells are again washed with Krebs buffer and then incubated for 1 h in the buffer of the secretion test (Krebs, pH 7.4 containing 0.1% of bovine albumin and 3.5 mM of glucose and molecules to be evaluated). At the end of the test, the cell supernatant is recovered in order to measure therein the secreted insulin, by means of an ELISA kit using a rat anti-insulin antibody (ELISA Alpco Cat no. 80-INSRTH-E10). Each condition is tested in triplicate. The 3.5 mM glucose, the 10^−7M GLP-1 and the Forskoline 10^−7/IBMX 10^−5M mixtures are used as positive controls of the test. A compound stimulates the secretion of insulin if this factor is greater than or equal to 130% of the control for a given glucose dose.

Structure (SMILES)	activity at 50 µM (isolated rat hepatocytes) [%]	activity at 100 µM (isolated rat hepatocytes) [%]	inhibition of hepatic production of glucose (isolated rat hepatocytes; dose of 100 μM)	insulin secretion, % of control at 10 µM (INS-1 cells) [%]	insulin secretion, % of control at 50 µM (INS-1 cells) [%]	inhibition of hepatic production of glucose (isolated rat hepatocytes; with two doses)
O=C(O)c1ccc(OCc2nc3ccccn3c2C#Cc2cccc(C(F)(F)F)c2)cc1 [Derivative 90, 4-((3-((3-(trifluoromethyl)phenyl)-ethynyl)imidazo[1,2-a]pyridin-2-yl)methoxy)benzoic acid]	77	27	strongest inhibitions			
CCOC(=O)COCc1nc2ccccn2c1C#Cc1ccc(C)cc1 [Derivative 2, ethyl 2-((3-(p-tolylethynyl)-imidazo[1,2-a]pyridin-2-yl)-methoxy)acetate]				127	333	
CC(C)(CO)C(OCc1nc2ccccn2c1C#Cc1cccc(C(F)(F)F)c1)C(=O)O (stereo not shown) [Derivative 129, 4-hydroxy-3,3-dimethyl-2-[[3-[2-[3-(trifluoromethyl)phenyl]ethynyl]imidazo[1,2-a]pyridin-2-yl]methoxy]butanoic acid]				109	146	
CCOC(=O)COCc1nc2ccccn2c1C#Cc1ccc(F)c(F)c1 [Derivative 10, ethyl 2-((3-((3,4-difluorophenyl)-ethynyl)imidazo[1,2-a]pyridin-2-yl)methoxy)acetate]	86	71				
CC1(C)COC(=O)C1OCc1nc2ccccn2c1C#Cc1cccc(C(F)(F)F)c1 (stereo not shown) [Derivative 99, 4,4-dimethyl-3-[[3-[2-[3-(trifluoromethyl)phenyl]ethynyl]imidazo[1,2-a]pyridin-2-yl]methoxy]-tetrahydrofuran-2-one]	85	68				
CCOC(=O)COCc1nc2ccccn2c1C#Cc1ccc([N+](=O)[O-])cc1 [Derivative 5, ethyl 2-((3-((4-nitrophenyl)-ethynyl)imidazo[1,2-a]pyridin-2-yl)methoxy)acetate]				180	195	
O=C(O)CSCc1nc2ccccn2c1C#Cc1cccc(C(F)(F)F)c1 [Derivative 115, 2-[[3-[2-[3-(trifluoromethyl)phenyl]-ethynyl]imidazo[1,2-a]pyridin-2-yl]methylsulfanyl]acetic acid]	94	54	strongest inhibitions			
CCOC(=O)CSCc1nc2ccccn2c1C#Cc1cccc(C(F)(F)F)c1 [Derivative 108, ethyl 2-[[3-[2-[3-(trifluoromethyl)-phenyl]ethynyl]imidazo[1,2-a]pyridin-2-yl]methylsulfanyl]acetate]	89	64				
CCOC(=O)COCc1nc2ccccn2c1C#Cc1cccc(F)c1 [Derivative 23, ethyl 2-((3-((3-fluorophenyl)-ethynyl)imidazo[1,2-a]pyridin-2-yl)methoxy)acetate]	95	73				
O=C(O)c1cccc(OCc2nc3ccccn3c2C#Cc2ccccc2)c1 [Derivative 93, 3-((3-(phenylethynyl)imidazo[1,2-a]pyridin-2-yl)methoxy) benzoic acid]	26	19				strongest inhibitions
O=C(O)CSCc1nc2ccccn2c1C#Cc1cccc(OC(F)(F)F)c1 [Derivative 116, 2-[[3-[2-[3-(trifluoromethoxy)-phenyl]ethynyl]imidazo[1,2-a]pyridin-2-yl]methylsulfanyl] acetic acid]	88	64				
CCOC(=O)COCc1nc2ccccn2c1C#Cc1cccc(C(F)(F)F)c1 [Derivative 7, ethyl 2-((3-((3-(trifluoromethyl)-phenyl)ethynyl)imidazo[1,2-a]pyridin-2-yl)methoxy)acetate]	55	45				strongest inhibitions
O=C(O)COCc1nc2ccccn2c1C#Cc1cccc(OC(F)F)c1 [Derivative 35, 2-((3-((3-(difluoromethoxy)phenyl)-ethynyl)imidazo[1,2-a]pyridin-2-yl)methoxy)acetic acid]	73	64				
O=C([O-])COCc1nc2ccccn2c1C#Cc1cccc(C(F)(F)F)c1.[Na+] [Derivative 51, sodium 2-((3-((3-(trifluoromethyl)-phenyl)ethynyl)imidazo[1,2-a]pyridin-2-yl)methoxy)acetate]	61	45	strongest inhibitions			
CCOC(=O)CSCc1nc2ccccn2c1C#Cc1cccc(OC(F)(F)F)c1 [Derivative 109, ethyl 2-[[3-[2-[3-(trifluoromethoxy)-phenyl]ethynyl]imidazo[1,2-a]pyridin-2-yl]methylsulfanyl]acetate]	80	61				
O=C(CSCc1nc2ccccn2c1C#Cc1cccc(OC(F)(F)F)c1)Nc1cccnc1 [Derivative 126, N-(3-pyridyl)-2-[[3-[2-[3-(trifluoromethoxy)phenyl]ethynyl]imidazo[1,2-a]pyridin-2-yl]methylsulfanyl]acetamide]	72	68				
COc1cccc(C#Cc2c(COCC(=O)O)nc3ccccn23)c1 [Derivative 30, 2-((3-((3-methoxyphenyl)ethynyl)-imidazo[1,2-a]pyridin-2-yl)methoxy)acetic acid]	74	60				
O=C(O)CSCc1nc2ccc(Cl)cn2c1C#Cc1cccc(OC(F)(F)F)c1 [Derivative 119, 2-[[6-chloro-3-[2-[3-(trifluoro-methoxy)phenyl]ethynyl]imidazo [1,2-a]pyridin-2-yl]methyl-sulfanyl]acetic acid]	73					
CCOC(=O)COCc1nc2ccccn2c1C#Cc1ccc(OC)cc1 [Derivative 4, ethyl 2-((3-((4-methoxyphenyl)-ethynyl)-imidazo[1,2-a]pyridin-2-yl)-methoxy)acetate]	81	74				
COC(=O)c1ccccc1OCc1nc2ccccn2c1C#Cc1cccc(C(F)(F)F)c1 [Derivative 77, methyl 2-((3-((3-(trifluoromethyl)-phenyl)ethynyl)imidazo[1,2-a]pyridin-2-yl)methoxy)benzoate]	87	50	strongest inhibitions			
O=C(O)c1ccccc1OCc1nc2ccccn2c1C#Cc1cccc(C(F)(F)F)c1 [Derivative 89, 2-((3-((3-(trifluoromethyl)phenyl)-ethynyl)imidazo[1,2-a]pyridin-2-yl)methoxy)benzoic acid]	78	33	strongest inhibitions			
O=C(O)COCc1nc2ccccn2c1C#Cc1cccc(OC(F)(F)F)c1 [Derivative 29, 2-((3-((3-(trifluoromethoxy)phenyl)-ethynyl)imidazo[1,2-a]pyridin-2-yl)methoxy)acetic acid]	63	40	strongest inhibitions			
O=C(NO)c1ccccc1OCc1nc2ccccn2c1C#Cc1ccc(F)cc1 [Derivative 96, 2-((3-((4-fluorophenyl)ethynyl)-imidazo[1,2-a]pyridin-2-yl)-methoxy)-N-hydroxybenzamide]	81	66				
CN(C)CCNC(=O)c1ccccc1OCc1nc2ccccn2c1C#Cc1ccc(F)cc1 [Derivative 95, N-(2-(dimethylamino)ethyl)-2-((3-((4-fluorophenyl)ethynyl)-imidazo[1,2-a]pyridin-2-yl)methoxy)benzamide]	65	62				
